Assay results reported in patent US9643967B2, “Pyrrolo[3,2-c]pyridine derivatives as TLR inhibitors” (TAKEDA PHARMACEUTICAL COMPANY LIMITED, priority 2013, dated 2017).
Where two headings read alike, the source gives them in different places.

Biological target: T1, mTLR7 (Mus musculus, UniProt P58681)
T1 construct: Splenocytes isolated from male C57/BL6 mice; from tissue; host or cells: splenocytes from the spleen of male C57BL/6 mice
T1 sequence (P58681 27-1050): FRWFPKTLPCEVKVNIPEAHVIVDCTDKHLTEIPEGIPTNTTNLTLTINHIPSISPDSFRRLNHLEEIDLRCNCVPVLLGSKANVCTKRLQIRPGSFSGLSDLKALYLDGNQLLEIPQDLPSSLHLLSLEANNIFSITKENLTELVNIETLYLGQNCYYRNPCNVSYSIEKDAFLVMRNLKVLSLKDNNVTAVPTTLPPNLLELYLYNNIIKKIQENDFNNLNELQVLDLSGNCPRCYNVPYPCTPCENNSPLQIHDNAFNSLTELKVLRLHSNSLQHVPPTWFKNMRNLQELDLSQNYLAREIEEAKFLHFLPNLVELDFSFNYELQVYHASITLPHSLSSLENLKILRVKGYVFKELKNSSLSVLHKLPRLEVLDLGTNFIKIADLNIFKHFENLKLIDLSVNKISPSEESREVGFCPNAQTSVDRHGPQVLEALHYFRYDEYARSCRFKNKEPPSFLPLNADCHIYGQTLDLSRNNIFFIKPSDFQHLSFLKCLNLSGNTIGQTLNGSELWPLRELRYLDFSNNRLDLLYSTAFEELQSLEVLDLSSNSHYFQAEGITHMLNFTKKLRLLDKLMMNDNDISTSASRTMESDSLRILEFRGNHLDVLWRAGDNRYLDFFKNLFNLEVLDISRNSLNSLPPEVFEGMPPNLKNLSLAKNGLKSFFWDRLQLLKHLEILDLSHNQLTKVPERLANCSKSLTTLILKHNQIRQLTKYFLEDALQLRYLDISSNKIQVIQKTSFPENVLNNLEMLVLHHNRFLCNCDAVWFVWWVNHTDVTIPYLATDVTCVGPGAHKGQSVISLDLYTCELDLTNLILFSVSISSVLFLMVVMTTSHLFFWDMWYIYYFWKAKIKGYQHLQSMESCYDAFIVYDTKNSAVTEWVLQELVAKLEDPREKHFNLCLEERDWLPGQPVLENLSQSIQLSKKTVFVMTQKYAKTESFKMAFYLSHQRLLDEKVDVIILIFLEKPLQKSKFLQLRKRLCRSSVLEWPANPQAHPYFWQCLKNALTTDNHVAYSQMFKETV
Test: mTLR7 antagonism (IL-6 and TNF-α release assay) in mouse splenocytes, R0006/DOTAP stimulated
Assay type: cell-based
Conditions: 1 μM, mouse splenocytes
Text: mTLR9 and mTLR7 Antagonism (Cytokine Release Assay) in Mouse Splenocytes
TLR7 ligand R0006 (IDT, 5′-rU*rU*rG*rU*rU*rG*rU*rU*rG*rU*rU*rG*rU*rU*rG*rU*rU*rG*rU*rU-3′ (SEQ ID NO:1)), Liposomal transfection reagent—DOTAP (Roche, Cat. No. 11202375001), TLR9 ligand CpG ODN2006 (Sequence: T*C*G*T*C*G*T*T*T*T*G*T*C*G*T*T*T*T*G*T*C*G*T*T; *=phosphorothioate (SEQ ID NO:2)) DMSO (Sigma, D2650), RPMI Powder (Sigma, R6504), Fetal Bovine Serum (Gibco, 10270), Dulbecco's Phosphate Buffered Saline (Sigma, D1408), 96 well plate (Flat bottom, Costar 3599), ELISA kit for IL-6 (EBioscience, 88-7064-77 and TNFa (EBioscience, 88-7346-88), MACS Buffer (AutoMACS Rinsing Solution (Miltenyl Biotec, 130-091-222)+0.05% BSA), RBC lysis buffer (0.85% NH4Cl), 40 μm cell strainer (BD Falcon, 352340) Method: A. Isolation of Mouse Splenocytes
Mouse spleen was isolated from C57BL6 mouse and stored in 1× chilled PBS buffer until further processed. Spleen was transferred to a sterile petriplate and chopped in to 5-6 pieces in presence of MACS buffer (100 μl) with the help of fresh surgical blade and crushed with flat plunger of a sterile syringe. A uniform suspension was prepared by passing cells through a 40 μm cell strainer. Cells were centrifuged at 450×g for 5 minutes at 4° C., supernatant was discarded and pellet dislodged gently, resuspended in 2 ml of pre-warmed (37° C.) RBC lysis buffer at room temperature with continuous gentle mixing with 1 ml pipette. Lysis buffer was neutralized with 12 ml of chilled MACS buffer and cells were passed through 40 μm cell strainer. Cell suspension was collected in 15 ml MACS buffer and centrifuged at 450×g for 5 minutes at 4° C. Pellet was resuspended in 15 ml MACS buffer and centrifuged at 400×g for 5 minutes. Cells were resuspended in 10 ml of RPMI complete medium and viability was estimated by Trypan blue method.
mTLR7 Antagonism (IL-6 and TNF-α Release Assay):
1 mg/ml stock of R0006 was prepared in sterile, endotoxin-free water. R0006 stock was diluted 10 fold with DOTAP and incubated for 30 minutes to form liposome complex (100 μg/ml of R0006). This complex was further diluted 10 fold with incomplete RPMI media (10 μg/ml of R0006) to achieve the final agonist concentration of 1 μg/ml. DOTAP alone was diluted 10 fold in incomplete RPMI media. NCEs were added in a concentration range of 30 μM to 1 nM in respective wells of assay plate, assay medium containing 0.3% DMSO were added to control wells. 0.2 million splenocytes were added to all the wells and incubated at 37° C. in 5% CO2 incubator for 30 minutes. 1 μg/ml of respective agonist was added to all the wells except those were assigned as negative controls and mixed thoroughly. DOTAP was added to negative control wells and incubated overnight at 37° C./5% CO2. The plate was centrifuged at 450×g for 5 minutes at room temperature and the supernatant was collected. ELISA was performed as per manufacturer's protocol. S/B Ratio, % Activity and % Inhibition was calculated using MS Excel. IC50 and inhibition curve was generated using Graph Pad Prism.

[1] = IL-6 release, read-out: mTLR7 inhibitory activity (% at 1 μM), IL-6
[2] = TNF-α release, read-out: mTLR7 inhibitory activity (% at 1 μM), TNF-α

| inhibition at 1 µM [1] [%] | inhibition at 1 µM [2] [%] | Structure (SMILES) |
| --- | --- | --- |
| 100 | 99 | Cc1nc(-c2ccc(N3CCN(C(C)C)CC3)cc2)c2cc(CN3CCOCC3)[nH]c2c1C [Example A36, 4-[[4-[4-(4-isopropylpiperazin-1-yl)phenyl]-6,7-dimethyl-1H-pyrrolo[3,2-c]pyridin-2-yl]methyl] morpholine] |
|  | 100 | Cc1nc(-c2ccc(N3CCN(C)CC3)cc2)c2cc(CN3CCOCC3)[nH]c2c1C [Example A37, 4-[[6,7-dimethyl-4-[4-(4-methylpiperazin-1-yl)phenyl]-1H-pyrrolo[3,2-c]pyridin-2-yl]methyl] morpholine] |
| 100 | 100 | CCN1CCN(c2ccc(-c3nc(C)c(C)c4[nH]c(CN5CCOCC5)cc34)cc2)CC1 [Example A38, 4-[[4-[4-(4-ethylpiperazin-1-yl)phenyl]-6,7-dimethyl-1H-pyrrolo[3,2-c]pyridin-2-yl]methyl] morpholine] |
|  | 100 | Cc1nc(-c2ccc(N3CCN(C(C)C)CC3)cc2)c2cc(CN3CCCCC3)[nH]c2c1C [Example A39, 4-[4-(4-isopropylpiperazin-1-yl)phenyl]-6,7-dimethyl-2-(1-piperidylmethyl)-1H-pyrrolo[3,2-c]pyridine] |
|  | 100 | Cc1nc(-c2ccc(N3CCN(C(C)C)CC3)cc2)c2cc(CN3CCCC3)[nH]c2c1C [Example A40, 4-[4-(4-isopropylpiperazin-1-yl)phenyl]-6,7-dimethyl 2-(pyrrolidin-1-ylmethyl)-1H-pyrrolo[3,2-c)pyridine] |
| 34 | 9 | c1cc2[nH]c(CN3CCOCC3)cc2c(-c2ccc(N3CCNCC3)cc2)n1 [Example A42, 4-[[4-(4-(piperazin-1-yl)phenyl)-1H-pyrrolo[3,2-c]pyridin-2-yl]methyl] morpholine] |
| 2 | 3 | c1cc2[nH]c(CN3CCOCC3)cc2c(-c2ccc(OC3CCNCC3)cc2)n1 [Example A49, 4-[[4-[4-(4-piperidyloxy)phenyl]-1H-pyrrolo[3,2-c]pyridin-2-yl]methyl]morpholine] |
| 100 | 96 | Cc1cc2[nH]c(CN3CCOCC3)cc2c(-c2ccc(C3CCN(C(C)C)CC3)cc2)n1 [Example A51, 4-[[4-[4-(1-isopropyl-4-piperidyl)phenyl]-6-methyl-1H-pyrrolo[3,2-c]pyridin-2-yl]methyl]morpholine] |
| 100 | 83 | CC(C)N1CCN(c2ccc(-c3nccc4[nH]c(CN5CCOCC5)cc34)cn2)CC1 [Example A53, 4-[[4-[6-(4-isopropylpiperazin-1-yl)-3-pyridyl]-1H-pyrrolo[3,2-c]pyridin-2-yl]methyl]morpholine] |
|  | 0 | CC(C)N1CCC(n2cc(-c3nccc4[nH]c(CN5CCOCC5)cc34)cn2)CC1 [Example A54, 4-[[4-[1-(1-isopropyl-4-piperidyl)pyrazol-4-yl]-1H-pyrrolo[3,2-c]pyridin-2-yl]methyl]morpholine] |
| 100 | 33 | CC(C)N1CCN(Cc2ccc(-c3nccc4[nH]c(CN5CCOCC5)cc34)cc2)CC1 [Example A55, 4-[[4-[4-[(4-isopropylpiperazin-1-yl)methyl]phenyl]-1H-pyrrolo[3,2-c]pyridin-2-yl]methyl]morpholine] |
|  | 64 | CC(C)N1CCC(Oc2ccc(-c3nccc4[nH]c(CN5CCOCC5)cc34)cc2)CC1 [Example A56, 4-[[4-[4-[(1-isopropyl-4-piperidyl)oxy]phenyl]-1H-pyrrolo[3,2-c]pyridin-2-yl]methyl]morpholine] |
| 80 | 79 | CC(C)N1CCN(c2cccc(-c3nccc4[nH]c(CN5CCOCC5)cc34)c2)CC1 [Example A57, 4-[[4-[3-(4-isopropylpiperazin-1-yl)phenyl]-1H-pyrrolo[3,2-c]pyridin-2-yl]methyl]morpholine] |
|  | 29 | CN1CCN(Cc2ccc(-c3nccc4[nH]c(CN5CCOCC5)cc34)cc2)CC1 [Example A60, 4-[[4-[4-[(4-methylpiperazin-1-yl)methyl]phenyl]-1H-pyrrolo[3,2-c]pyridin-2-yl]methyl]morpholine] |
| 78 | 74 | CN1CCN(c2cccc(-c3nccc4[nH]c(CN5CCOCC5)cc34)c2)CC1 [Example A61, 4-[[4-[3-(4-methylpiperazin-1-yl)phenyl]-1H-pyrrolo[3,2-c]pyridin-2-yl]methyl]morpholine] |
|  | 75 | CN1CCC(Oc2ccc(-c3nccc4[nH]c(CN5CCOCC5)cc34)cc2)CC1 [Example A62, 4-[[4-[4-[(1-methyl-4-piperidyl)oxy]phenyl]-1H-pyrrolo[3,2-c]pyridin-2-yl]methyl]morpholine] |
|  | 0 | CN1CCC(n2cc(-c3nccc4[nH]c(CN5CCOCC5)cc34)cn2)CC1 [Example A63, 4-[[4-[1-(1-methyl-4-piperidyl)pyrazol-4-yl]-1H-pyrrolo[3,2-c]pyridin-2-yl]methyl]morpholine] |
| 13 | 4 | CC(C)N1CCC(c2ccc(-c3nccc4[nH]c(CN5CCOCC5)cc34)cn2)CC1 [Example A64, 4-[[4-[6-(1-isopropyl-4-piperidyl)-3-pyridyl]-1H-pyrrolo[3,2-c]pyridin-2-yl]methyl]morpholine] |
| 100 | 36 | CC(C)N1CCC(c2ccc(-c3nccc4[nH]c(CN5CCOCC5)cc34)cc2)CC1 [Example A70, 4-[[4-[4-(1-isopropyl-4-piperidyl)phenyl]-1H-pyrrolo[3,2-c]pyridin-2-yl]methyl]morpholine] |
| 0 | 14 | CC(C)N1CCN(c2ccc(-c3nccc4[nH]c(CN5CC(O)C5)cc34)cc2)CC1 [Example A72, 1-[[4-[4-(4-isopropylpiperazin-1-yl)phenyl]-1H-pyrrolo[3,2-c]pyridin-2-yl]methyl]azetidin-3-ol] |

| Structure (SMILES) | inhibition at 1 µM [1] [%] | inhibition at 1 µM [2] [%] |
| --- | --- | --- |
| CC(C)N1CC=C(c2ccc(-c3nccc4[nH]c(CN5CCOCC5)cc34)cn2)CC1 [Example A52, 4-[[4-[6-(1-isopropyl-3,6-dihydro-2H-pyridin-4-yl)-3-pyridyl]-1H-pyrrolo[3,2-c]pyridin-2-yl]methyl]morpholine] | 71 | 10 |
